Patent US20080166396A1, “Boronate Medicaments Suitable for Short Duration Anticoagulation” (Trigen Holdings AG Clareville House, priority 2004, published 2008)
Counter-ions that a name gives are not always drawn. Marks after values point to notes of the source that are not given here.

Legend:
[1] = Maximum aqueous solubility, salt shaken in water at 37° C., filtered, UV; assay type: physicochemical; settings: 25 mg of dried salt shaken in water at 37° C.
[2] = Stability: HPLC assay before and after drying over phosphorus pentoxide for 1 week; assay type: physicochemical; settings: listed as TRI 50c Lys salt; for Amount: 5 mg in 5 mL
Method: An assay of TRI 50c and its sodium and lysine salts before and after drying.
For sample analysis, 5 mg of dried and non-dried material was weighed in a 5 mL volumetric flask and dissolved in 1 mL acetonitrile and filled up with demineralised water to 5 mL.
The quantitative evaluation was performed using an HPLC-PDA method.

[3] = target: T1, human α-thrombin (Homo sapiens, UniProt P00734); settings: reported by Deadman et al, J. Med. Chem. 1995; cited from earlier work
T1 construct: 50 μl of human α-thrombin (0.25 NIHμ/ml) was added

[4] = Comparative storage stability of sodium and calcium salts (moisture-permeable packaging); assay type: physicochemical
Excerpt: In both studies the active pharmaceutical ingredient was stored in gray sealed double bags within a PE/PP screw cap closed cylinder.

[5] = test system: Thrombin Time (TT); experiment: Single oral doses of TGN 167 tablets in healthy male subjects; assay type: in vivo
Method: TGN 167 tablets described above were administered via the oral route to 10 healthy male subjects as single doses (randomised double blind placebo controlled study). The group consisted of 10 healthy male volunteers, 9 of whom received active compound and one of whom received placebo. An amendment was introduced for the last panel, allowing 15 subjects (instead of 9) to receive a 600 mg dose. The interval between each dose of TGN 167 was one week minimum. The allocation of the placebo was such that each volunteer would only receive placebo once during the course of the study.
Orally administered doses were: 75 mg (one tablet), 150 mg (two tablets), 300 mg (four tablets) and 600 mg (eight tablets).

[6] = Excretion of administered dose as TRI 50c species; settings: in vivo
[7] = Solubility of TRI 50c monosodium salt at different pH values / reconstitution; assay type: physicochemical
Excerpt: A first class of formulation, therefore, comprises particulate formulations, i.e. powders and granules, for oral administration after reconstitution into a liquid preparation, and preferably into a drinkable preparation. It is generally preferred for the liquid preparation to be a solution rather than a suspension and certain particulate formulations are for dissolving to form a drinking solution. The formulation may be for reconstitution into a suspension or more normally a solution having a volume of from about 50 ml to about 150 ml. The disclosure also contemplates reconstituted volumes of less than about 50 ml or of more than about 150 ml, e.g. of up to about 250 ml and more often of up to about 200 ml.
However, a solution with a pH of 9.5 will often be undesirably distasteful to drink. Accordingly, a pharmaceutically acceptable organic acid may be included in the particulate formulation in an amount selected to reduce the pH to a value at which the solution is more palatable but at which a solution of drinkable quantity (e.g. about 50 ml to about 150 ml) may be formed by reconstituting the particulate formulation. As the organic acid may be mentioned citric acid, tartaric acid or malic acid, for example. In many instances, citric acid is chosen.
In a first series of experiments, this amount of the salt was dissolved in 50 ml water to form a solution of approximately pH 9.5. Dilute aqueous HCl was added to determine how much the pH could be reduced before precipitation occurred.
In a second series of experiments, the same amount of the salt was dissolved in 150 ml water, and citric acid was added. […] Since acid solutions tend to be more palatable than alkaline ones, and citric acid is a common flavouring agent, this behaviour of the salt is highly beneficial. […] In general, it is contemplated that the boronate will be formulated to form a reconstituted solution having a pH of from 4 to 8, e.g. 4 to 7, optionally 5 to 6.

[8] = dry (1 week over phosphorus pentoxide)

COCCC[C@H](NC(=O)[C@@H]1CCCN1C(=O)[C@@H](Cc1ccccc1)NC(=O)OCc1ccccc1)B(O)O [Lithium Salt of TRI50C]
observation on dissolution [1]: left a white residue of undissolved material

COCCC[C@H](NC(=O)[C@@H]1CCCN1C(=O)[C@@H](Cc1ccccc1)NC(=O)OCc1ccccc1)B(O)O [Lysine Salt of TRI50C]
Amount [2, 8]: 813.3 µg/mL | Purity [2, 8]: 90.17 % area | Amount ([2]; non-dried): 809.8 µg/mL | Purity ([2]; non-dried): 92.25 % area

CNC[C@H](O)[C@@H](O)[C@H](O)[C@H](O)CO.COCCC[C@H](NC(=O)[C@@H]1CCCN1C(=O)[C@@H](Cc1ccccc1)NC(=O)OCc1ccccc1)B(O)O [N-METHYL-D-GLUCAMINE SALT OF TRI50C]
observation on dissolution [1]: fully dissolve

COCCC[C@H](NC(=O)[C@@H]1CCCN1C(=O)[C@@H](Cc1ccccc1)NC(=O)OCc1ccccc1)B([O-])O.[K+] [Potassium Salt of TRI50C]
observation on dissolution [1]: left a white residue of undissolved material

COCCCC(NC(=O)C1CCCN1C(=O)C(Cc1ccccc1)NC(=O)OCc1ccccc1)B1OC(C)(C)C(C)(C)O1 [TRI 50b, Cbz-(R)-Phe-Pro-BoroMpg-OPinacol]
Ki [3]: 7 nM

COCCC[C@H](NC(=O)[C@@H]1CCCN1C(=O)[C@@H](Cc1ccccc1)NC(=O)OCc1ccccc1)B([O-])O.COCCC[C@H](NC(=O)[C@@H]1CCCN1C(=O)[C@@H](Cc1ccccc1)NC(=O)OCc1ccccc1)B([O-])O.[Ca+2] [TRI 50c calcium salt]
Tri50c (w/w %, LOD corrected) ([4]; T = 0, LOD = loss on drying): (99.7) w/w % | Tri50c (w/w %, LOD corrected) ([4]; T = 1, 25° C./60% r.h.): (101.5) w/w % | Tri50c (w/w %, LOD corrected) ([4]; T = 1, 40° C./75% r.h.): (100.6) w/w % | Tri50c (w/w %, LOD corrected) ([4]; T = 1, −20° C.): (102.7) ^x w/w % | Tri50c (w/w %, LOD corrected) ([4]; T = 3, 25° C./60% r.h.): (104.3) w/w % | Tri50c (w/w %, LOD corrected) ([4]; T = 3, 40° C./75% r.h.): (82.0) w/w % | Tri50c (w/w %, LOD corrected) ([4]; T = 3, −20° C.): (103.0) ^x w/w % | Tri50c (w/w %, LOD corrected) ([4]; T = 12, 25° C./60% r.h.): (94.8 w/w) w/w % | observation on dissolution [1]: left a white residue of undissolved material | time at which all TT had returned to baseline ([5]; after oral administration): 10 h | adverse clinical events (general or cardiovascular) ([5]; oral, any dose, study period of 24 hours): no adverse clinical events

COCCC[C@H](NC(=O)[C@@H]1CCCN1C(=O)[C@@H](Cc1ccccc1)NC(=O)OCc1ccccc1)B(O)O.[Na+] [TRI 50c monosodium salt, Cbz-(R)-Phe-(S)-Pro-(R)-Mpg-B(OH)2 monosodium salt]
administered dose excreted as TRI 50c species [6]: 14% | concentration of boronate salt solution formed ([7]; at a pH of about 9.5): up to 600 mg/ml | pH of solution ([7]; salt equivalent to 600 mg TRI 50c dissolved in 10 ml water): 9.88 | pH of solution ([7]; salt equivalent to 600 mg TRI 50c dissolved in 50 ml water): ~9.5 | Tri50c (w/w %, LOD corrected) ([4]; T = 0, LOD = loss on drying): 101.5 w/w % | Tri50c (w/w %, LOD corrected) ([4]; T = 1, 25° C./60% r.h.): 103.6 w/w % | Tri50c (w/w %, LOD corrected) ([4]; T = 1, 40° C./75% r.h.): 94.5 w/w % | Tri50c (w/w %, LOD corrected) ([4]; T = 1, −20° C.): 104.3 w/w % | Tri50c (w/w %, LOD corrected) ([4]; T = 3, 25° C./60% r.h.): 100.4 w/w % | Tri50c (w/w %, LOD corrected) ([4]; T = 3, 40° C./75% r.h.): 52.2 w/w % | Tri50c (w/w %, LOD corrected) ([4]; T = 12, 25° C./60% r.h.): 71.2 w/w % | observation on dissolution [1]: left a white residue of undissolved material
